≈ marks a conversion by molar mass, not a printed value.
Assays:
[1] = test system: methicillin-resistant S. aureus (MRSA); assay: MRSA skin infection, wound closure; format: in vivo, mice; conditions: for wound healing compared with mupirocin and linezolid: 30 mg/kg oral BID for 7 days
Protocol: FIG. 11B are photos from the top view of mice with skin infection caused by MRSA before (at Day 0) and after different treatments (at Day 7): top left received 2% mupirocin via topical BID for 7 days; top right received 100 mg/kg linezolid via oral BID for 7 days; bottom received 30 mg/kg IM032 via oral BID for 7 days.
Visual wound healing/closure in different treatment groups of mice can be observed in FIG. 11B.

[2] = test system: S. aureus USA300; assay: In vitro staphyloxanthin production inhibition by NP-16 analogues; format: cell-based, Staphylococcus aureus; conditions: S. aureus USA300, methanol extract OD 450 nm, 300 nM to 700 nM
Protocol: Evaluation of NP-16 analogues in Staphyloxanthin production
The in vitro pigment inhibition studies were performed by S. aureus USA300 cultured in BHI with or without the presence of inhibitor compounds at 37° C. and 250 rpm for 36-48 hours. The bacteria were washed twice with PBS prior to the staphyloxanthin purification with methanol. The OD of the extracts were monitor at 450 nm using DTX880 multi-plate reader spectrophotometer (Beckman). The concentration range tested for the compounds were between 300 nM to 700 nM, and control groups were added with equal volume of DMSO.
The cytotoxicity of NP-16 and some of its analogues was tested against Raw 264.7 cells, and the cell tolerance of each compounds were documented in Table 3. Along with the in vitro staphyloxanthin production of the NP-16 analogues were being tested, the compounds can exert staphyloxanthin production inhibition. The staphyloxanthin from the overnight-cultured bacteria were extracted with methanol and quantified in via spectrophotometry. The results were presented in relative ratio to NP-16 in both the inhibition ratio as well as the TC50 (concentration for decreasing cell viability by 50%) in Table 3 (sample names correspond to those listed in Table 1).

[3] = test system: MRSA USA 300 ATCC BAA-1717; assay: Mouse (LD0-20) bacteremia model; format: in vivo, BALB/c mice; conditions: IM032 0.3-30 mg/kg PO BID for 7 days; sacrificed at 168 h (Day 7)
Protocol: Efficacy of IM032 in a Mouse (LD0-20) Bacteremia Model Infected with Methicillin-Resistant Staphylococcus (MRSA USA300) (BAA-1717)
A bacterial strain, USA 300 MRSA BAA-1717, was used to infect BALB/c (female). Test animals were intravenously (IV) inoculated with MRSA ATCC BAA-1717 at a target density of 1×10^6 CFU/mouse. Test substance, IM032 at 0, 0.3, 1, 3, 10, and 30 mg/kg, was administered orally (PO) twice daily (BID) for a total of 7 dosing days.
The reference agents, vancomycin at 3 mg/kg was administered IV once (QD) at 1 h after infection for 7 consecutive days.
With reference to FIG. 9, the animals were IV inoculated with MRSA USA 300 ATCC BAA-1717 at 1.02×10^6 CFU/mouse. IM032 at 0.3, 1, 3, 10, and 30 mg/kg were orally (PO) administrated twice daily (BID) at 1 and 7 h after the infection on Day 1, and then twice daily at 6-hour intervals in the next 6 days for a total of 7 days of dosing. Vancomycin, at 3 mg/kg, was administered intravenously (IV) at 1 h after the infection on Day 1 and then once a day in the next 6 days for a total of 7 days of dosing. […] Statistical significance compared to the respective vehicle control was determined by unpaired student t-tests. […]
With reference to FIG. 10, bacterial density in lung and liver were determined. […] Statistical significance compared to the respective vehicle control was determined by unpaired student t-tests. […]

[4] = Solubility in commonly used solvents for oral administration; format: physicochemical

O=C(/C=C/c1ccccc1Br)Nc1ccc(S(=O)(=O)N2CCCCC2)cc1 [NP16-XL-016, 3-(6-bromophenyl)-N-[4-(1-piperidine-1-sulfonyl)phenyl]-acrylamide]
wound healing compared with mupirocin and linezolid ([1]; listed as ALS-4): statistically significant improvement in wound healing
wound healing compared with mupirocin and linezolid ([1]; listed as IM032): best visual wound healing
percentage of wound closure ([1]; 30 mg/kg oral twice a day, Day 7): 63.8%
Relative ratio to NP16 based on inhibition ratio [2]: 2.71
bacteria count across major organs [3]: statistically significant reduction in bacteria count across major organs
solubility ([4]; 1:1 Labrasol ALF/PEG300, organic solvent or mixture): 16.1 mg/mL (≈ 35.8 mM)
solubility ([4]; 1:1 Labrasol ALF/PEG400, organic solvent or mixture): > 15 mg/mL
solubility ([4]; Labrasol ALF, oil or lipid): 11.8 mg/mL (≈ 26.3 mM)
solubility ([4]; PEG300, organic solvent or mixture): > 20 mg/mL
solubility ([4]; PEG400, organic solvent or mixture): > 20 mg/mL

From US11040949B2, “Compounds affecting pigment production and methods for treatment of bacterial diseases” (Versitech Limited, priority 2017, dated 2021)
